From patent US20230054749A1, “Herbicide Combinations Comprising Glufosinate and Flumiclorac-pentyl” (BASF SE, priority 2020, published 2023)
Like-named read-outs stand apart in the source and are kept apart here.

Test system: Abutilon theophrasti
Assay: Greenhouse post-emergence herbicidal activity (plant damage, 0 to 100% scale vs untreated control)
Format: in vivo
Conditions: 0.796 g ai/ha, ABUTH, AMS + NIS added, read-out: Solo Flumiclorac (0.796 g ai/ha) % activity
Text: For the post-emergence treatment, the test plants were first grown to 3.5 to 4.5 inch (8.9 to 11.4 cm) tall, and only then treated. Here, the herbicidal compositions were suspended or emulsified in water as distribution medium and sprayed using finely distributing nozzles.
Flumiclorac (commercial product name: Resource) was used as an emulsifiable concentrate having an active ingredient concentration of 100 g/l. Glufosinate (commercial product name: Liberty) was used as an aqueous soluble liquid of glufosinate ammonium having an active ingredient concentration of 280 g/l. Adjuvants of ammonium sulfate (AMS) and non-ionic surfactant (NIS) were added in all treatments. AMS and NIS were AMS Liquid and Induce at rates of 1680 g/ha and 0.25% (v/v), respectively.
The test period extended over 21 days after treatment (DAT). During this time, the plants were tended and their response to the individual treatments was evaluated.
The evaluation for the damage caused by the chemical compositions was carried out using a scale from 0 to 100%, compared to the untreated control plants. Here, 0 means no damage and 100 means complete destruction of the plants.
E = X + Y - (X.Y/100) • where X = effect in percent using flumiclorac at an application rate a; • Y = effect in percent using glufosinate at application rate b; • E = expected effect (in %) of flumiclorac plus glufosinate at application rates a + b.
The value E corresponds to the effect (plant damage or injury) which is to be expected if the activity of the individual compounds is just additive.

## CCCCCOC(=O)COc1cc(N2C(=O)C3=C(CCCC3)C2=O)c(F)cc1Cl [Flumiclorac, flumiclorac-pentyl]
168 h, 7 DAT
  inhibition at 0.796 g/ha: 53%
336 h, 14 DAT
  inhibition at 0.796 g/ha: 45%
504 h, 21 DAT
  inhibition at 0.796 g/ha: 41%
